Measured values reported in patent US20060287251A1, “Combination therapy for glycaemic control” (priority 2003, published 2006).

Key:
[1] = target: T1, dipeptidyl peptidase IV from porcine kidney (Sus scrofa, UniProt P22411); experiment: Ki-determination, DP IV from porcine kidney; assay type: biochemical; details: substrate glycylprolyl-4-nitroaniline, 30 °C, pH 7.6, competitive inhibition
T1 construct: dipeptidyl peptidase IV from porcine kidney with a specific activity against glycylprolyl-4-nitroaniline of 37.5 U/mg; from tissue; host or cells: porcine kidney
Method: For Kidetermination of glutaminyl pyrrolidine and glutaminyl thiazolidine, dipeptidyl peptidase IV from porcine kidney with a specific activity against glycylprolyl-4-nitroaniline of 37.5 U/mg and an enzyme concentration of 1.41 mg/mL in the stock solution was used.
100 μL glutaminyl pyrrolidine or glutaminyl thiazolidine in a concentration range of 1*10^−5 -1*10^−7 M (glutaminyl pyrrolidine) and 1*10^−6 M-1*10^−8 M (glutaminyl thiazolidine) respectively were admixed with 50 μL glycylprolyl-4-nitroaniline in different concentrations (0.4 mM, 0.2 mM, 0.1 mM, 0,05 mM) and 100 μl HEPES (40 mM, pH7.6; ion strength=0.125). The assay mixture was pre-incubated at 30 ° C. for 30 min. After pre-incubation, 20 μL DPIV (1:600 diluted) were added and measurement of yellow color development due to 4-nitroaniline release was performed at 30° C. and λ=405 nm for 10 min using a plate reader (HTS7000 plus, Applied Biosystems, Weiterstadt, Germany). The Ki-values were calculated using Graphit 4.0.15 (Erithacus Software, Ltd, UK) based on a competitive inhibition of DPIV by glutaminyl pyrrolidine or glutaminyl thiazolidine.

[2] = In vivo inactivation (degradation) after oral administration to Wistar rats, LC/MS; details: LC/MS of plasma
Method: Glutaminyl thiazolidine was administered to Wistar rats orally. After application of placebo or glutaminyl thiazolidine, arterial blood samples were taken at 2.5, 5, 7.5, 10, 15, 20, 40, 60 and 120 min from the carotid catheter of the conscious unrestrained rats to determine the formation of degradation products of glutaminyl thiazolidine. For analysis, simple solid phase extraction procedure on C18 cartridges was used to isolate the compounds of interest from the plasma. The extracts were analysed using reversed-phase liquid chromatography on Lichrospher 60 RP Select B column hyphenated with tandem mass spectrometry operating in the APCI positive mode. An internal standard method was used for quantification.

porcine DP II = target: T2, porcine DP II (Sus scrofa, UniProt A0A5G2QK18); experiment: Inhibition of DP IV-like enzymes: dipeptidyl peptidase II; assay type: biochemical; details: substrate lysylalanylaminomethylcoumarine, pH 7.6, 30 °C
T2 construct: The enzyme used was purified from porcine kidney; from tissue; host or cells: porcine kidney
Method: DP II (3.4.14.2) releases N-terminal dipeptides from oligopeptides if the N-terminus is not protonated (McDonald, J. K., Ellis, S. & Reilly, T. J., 1966, J Biol. Chem., 241, 1494-1501). Pro and Ala in P1-position are preferred residues. The enzyme activity is described as DPIV-like activity, but DP II has an acidic pH-optimum. The enzyme used was purified from porcine kidney. 100 μL glutaminyl pyrrolidine or glutaminyl thiazolidine in an concentration range of 1*10^−4M-5*10^−8M were admixed with 100 μL buffer solution (40 mM HEPES, pH 7.6, 0.015% Brij, 1 mM DTT), 50 μL lysylalanylaminomethylcoumarine solution (5 mM) and 20 μl porcine DP II (250 fold diluted in buffer solution). Fluorescence measurement was performed at 30° C. and λexiatation=380 nm, λemission=465 nm for 25 min using a plate reader (HTS7000 plus, Applied Biosystems, Weiterstadt, Germany).

Plasma stability = assay type: in vitro ADME, human; details: 37 °C; for stability in human plasma: human plasma in vitro; for half-life of the inhibitory potency: human plasma, 5*10^−5, 2.5*10^−5, 1.25*10^−5 M
Method: In order to investigate the stability of glutaminyl pyrrolidine or glutaminyl thiazolidine in human plasma, the activity of DPIV in plasma was determined at a defined time. The average DPIV activity in human plasma was determined as 43.69 U/mL. In the working solution, the plasma was diluted in 0.9% NaCl to fix the DPIV activity level at 25 U/mL. Plasma and glutaminyl pyrrolidine or glutaminyl thiazolidine in different concentrations (5*10^−5, 2.5*10^−5, 1.25*10^−5 M in plasma) were incubated at 37° C. At defined time points samples were taken using a pipette roboter (Gilson 215, Liquid handler, Gilson) and transferred in a microtiter plate containing 5*10^−5 M glycylprolylaminomethylcoumarine in 0.9% NaCl+015% Brij per well. After 6 min the reaction was stopped by addition of isoleucylthiazolidine (5*10^−5 M in 0.9% NaCl solution). Fluorescence measurement was performed against 0.9% NaCl in plasma (reference standard) using a plate reader (HTS7000 plus, Applied Biosystems, Weiterstadt, Germany). The half-life of the inhibitory potency of glutaminyl pyrrolidine or glutaminyl thiazolidine was calculated by plotting the enzyme activity versus reaction time.

T1 sequence (P22411 whole entry): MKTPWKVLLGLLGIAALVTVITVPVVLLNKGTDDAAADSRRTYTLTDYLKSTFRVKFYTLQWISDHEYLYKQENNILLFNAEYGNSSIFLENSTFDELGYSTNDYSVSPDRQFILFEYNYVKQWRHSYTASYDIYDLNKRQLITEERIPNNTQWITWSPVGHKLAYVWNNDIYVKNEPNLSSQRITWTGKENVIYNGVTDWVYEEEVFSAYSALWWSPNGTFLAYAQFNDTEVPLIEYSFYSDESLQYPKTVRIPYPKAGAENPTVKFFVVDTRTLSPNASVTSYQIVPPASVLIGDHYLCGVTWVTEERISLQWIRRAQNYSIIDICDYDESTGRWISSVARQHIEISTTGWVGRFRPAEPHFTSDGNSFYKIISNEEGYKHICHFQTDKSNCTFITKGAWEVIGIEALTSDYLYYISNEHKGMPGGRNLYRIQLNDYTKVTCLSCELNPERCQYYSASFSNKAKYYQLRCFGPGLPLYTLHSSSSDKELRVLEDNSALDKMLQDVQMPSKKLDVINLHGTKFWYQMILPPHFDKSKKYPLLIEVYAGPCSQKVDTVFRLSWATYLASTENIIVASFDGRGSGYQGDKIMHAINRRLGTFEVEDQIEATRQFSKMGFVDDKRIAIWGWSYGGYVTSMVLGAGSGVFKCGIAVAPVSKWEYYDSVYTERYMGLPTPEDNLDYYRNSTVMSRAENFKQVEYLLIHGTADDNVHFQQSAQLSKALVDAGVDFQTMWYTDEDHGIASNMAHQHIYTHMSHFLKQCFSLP
T2 sequence (A0A5G2QK18 28-502): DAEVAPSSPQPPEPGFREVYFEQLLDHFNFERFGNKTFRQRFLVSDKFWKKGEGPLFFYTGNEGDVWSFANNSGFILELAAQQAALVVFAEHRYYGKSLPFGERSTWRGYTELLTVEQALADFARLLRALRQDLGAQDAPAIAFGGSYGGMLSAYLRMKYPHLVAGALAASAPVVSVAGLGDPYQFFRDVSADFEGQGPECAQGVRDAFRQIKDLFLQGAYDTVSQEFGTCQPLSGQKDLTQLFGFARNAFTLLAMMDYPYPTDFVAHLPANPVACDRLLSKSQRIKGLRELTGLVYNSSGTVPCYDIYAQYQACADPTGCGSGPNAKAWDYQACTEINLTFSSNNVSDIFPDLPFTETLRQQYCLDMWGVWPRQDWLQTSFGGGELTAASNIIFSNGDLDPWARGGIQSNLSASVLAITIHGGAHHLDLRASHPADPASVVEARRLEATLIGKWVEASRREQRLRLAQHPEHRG

Row | Compound | Ki [1] [µM] | degradation product in vivo [2] | Ki (porcine DP II) [µM] | stability in human plasma (Plasma stability) | half-life of the inhibitory potency (Plasma stability)
1 | NC(=O)CC[C@H](N)C(=O)N1CCCC1 [glutaminyl pyrrolidine] | 1.3 | pyroglutaminyl pyrrolidine | 85.2 | stable in human plasma over 22 hours | no half-time could be determined
2 | NC(=O)CC[C@H](N)C(=O)N1CCSC1 [glutaminyl thiazolidine] | 0.312 | pyroglutaminyl thiazolidine | 10.7 | stable in human plasma over 22 hours | no half-time could be determined
